Activity calls are given as the source filed them.
How the values were obtained:
Settings in all cases: filed as activator, time 90.0 min
[1] = tested on: Saccharomyces cerevisiae; assay: Activation of chymotrypsin-like activity of yeast 20s proteasome using suc-LLVY-AMC as flurogenic substrate preincubated for 30 mins followed by substrate addition and measured after 1 hr by fluorescence assay
[2] = tested on: Saccharomyces cerevisiae; assay: Activation of trypsin-like activity of yeast 20s proteasome using […] as flurogenic substrate preincubated for 30 mins followed by substrate addition and measured after 1 hr by fluorescence assay
[3] = tested on: Saccharomyces cerevisiae; assay: Activation of PGPHL-peptidase activity of yeast 20s proteasome using […] as flurogenic substrate preincubated for 30 mins followed by substrate addition and measured after 1 hr by fluorescence assay

Measured: Activity

COc1cc([C@@H]2Oc3cc([C@H]4Oc5cc(O)cc(O)c5C(=O)[C@@H]4O)ccc3O[C@H]2CO)ccc1O
active: all assays above

COc1cc([C@H]2Oc3cc([C@H]4Oc5cc(O)cc(O)c5C(=O)[C@@H]4O)ccc3O[C@@H]2CO)ccc1O
active: all assays above
